Measurements: patent US10954269B2, “Anti-inflammatory tripeptides” (Dr. August Wolff Gmbh & Co. KG Arzneimittel, priority 2013, dated 2021)
[ ]: non-standard residue; d: D form.

Test system: primary murine T-cells
Experiment: Cytokine secretion on protein level in activated primary murine T-cells (13-plex FACS / Luminex, supernatant)
Format: cell-based, C57BL/6 mice
Summary of the method: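 T-cells from secondary lymphatic organs of naïve C57BL/6 mice, stimulated with PMA/Ionomycin or IFN-γ; supernatant cytokines measured by 13-plex FACS 48 h and 72 h after stimulation. In another run, PMA/Ionomycin-stimulated cells received compounds at 10^−7, 10^−9 and 10^−11 M, with IFN-γ, IL-17 and IL-10 measured by Luminex.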

[1] = primary murine T-cells stimulated with IFN-γ, 10^−9M
[2] = primary murine T-cells stimulated with IFN-γ, substance 10^−9M
[3] = primary murine T-cells stimulated with PBS, 10^−9M
[4] = primary murine T-cells stimulated with PBS, substance 10^−9M
[5] = primary murine T-cells stimulated with PMA/Ionomycin, 10^−9M
[6] = primary murine T-cells stimulated with PMA/Ionomycin, 10^−9M, 1:10 dilution of the supernatants
[7] = primary murine T-cells stimulated with PMA/Ionomycin, substance 10^−9M

H-Lys-[dP]-Thr-OH [K(D)PT, reference compound]
IL-1 cytokine concentration [1]: 26.6 pg/mL
IL-2 cytokine concentration [1]: 0 pg/mL
IL-4 cytokine concentration [1]: 0 pg/mL
IL-5 cytokine concentration [1]: 0 pg/mL
IL-6 cytokine concentration [1]: 0 pg/mL
IL-10 cytokine concentration [1]: 0 pg/mL
IL-13 cytokine concentration [1]: 0 pg/mL
IL-17 cytokine concentration [1]: 0 pg/mL
IL-21 cytokine concentration [1]: 0 pg/mL
IL-22 cytokine concentration [1]: 0 pg/mL
IL-27 cytokine concentration [1]: 209.12 pg/mL
TNF-α cytokine concentration [1]: 0 pg/mL
IL-1 cytokine concentration [2]: 93.77 pg/mL
IL-2 cytokine concentration [2]: 98.22 pg/mL
IL-4 cytokine concentration [2]: 85.32 pg/mL
IL-5 cytokine concentration [2]: 271.81 pg/mL
IL-6 cytokine concentration [2]: 144.97 pg/mL
IL-10 cytokine concentration [2]: 1061 pg/mL
IL-13 cytokine concentration [2]: 0 pg/mL
IL-17 cytokine concentration [2]: 88.84 pg/mL
IL-21 cytokine concentration [2]: 0 pg/mL
IL-22 cytokine concentration [2]: 48.13 pg/mL
IL-27 cytokine concentration [2]: 0 pg/mL
TNF-α cytokine concentration [2]: 34.84 pg/mL
IFN-γ cytokine concentration [3]: 0 pg/mL
IL-1 cytokine concentration [3]: 0 pg/mL
IL-2 cytokine concentration [3]: 0 pg/mL
IL-4 cytokine concentration [3]: 0 pg/mL
IL-5 cytokine concentration [3]: 0 pg/mL
IL-6 cytokine concentration [3]: 27.81 pg/mL
IL-10 cytokine concentration [3]: 64.53 pg/mL
IL-13 cytokine concentration [3]: 0 pg/mL
IL-17 cytokine concentration [3]: 16.26 pg/mL
IL-21 cytokine concentration [3]: 0 pg/mL
IL-22 cytokine concentration [3]: 0 pg/mL
IL-27 cytokine concentration [3]: 25.93 pg/mL
TNF-α cytokine concentration [3]: 0 pg/mL
IFN-γ cytokine concentration [4]: 0 pg/mL
IL-1 cytokine concentration [4]: 60.41 pg/mL
IL-2 cytokine concentration [4]: 124.13 pg/mL
IL-4 cytokine concentration [4]: 71.69 pg/mL
IL-5 cytokine concentration [4]: 373.93 pg/mL
IL-6 cytokine concentration [4]: 124 pg/mL
IL-10 cytokine concentration [4]: 1039.39 pg/mL
IL-13 cytokine concentration [4]: 0 pg/mL
IL-17 cytokine concentration [4]: 0 pg/mL
IL-21 cytokine concentration [4]: 0 pg/mL
IL-22 cytokine concentration [4]: 78.32 pg/mL
IL-27 cytokine concentration [4]: 87.48 pg/mL
TNF-α cytokine concentration [4]: 77.74 pg/mL
IL-1 cytokine concentration [5]: 30.27 pg/mL
IL-4 cytokine concentration [5]: 71.79 pg/mL
IL-5 cytokine concentration [5]: 280.87 pg/mL
IL-6 cytokine concentration [5]: 140.97 pg/mL
IL-10 cytokine concentration [5]: 188.56 pg/mL
IL-13 cytokine concentration [5]: 4314.15 pg/mL
IL-17 cytokine concentration [5]: 423.67 pg/mL
IL-21 cytokine concentration [5]: 0 pg/mL
IL-22 cytokine concentration [5]: 333.4 pg/mL
IL-27 cytokine concentration [5]: 99.7 pg/mL
TNF-α cytokine concentration [5]: 515.54 pg/mL
IFN-γ* cytokine concentration [6]: 712.81 pg/mL
IL-2* cytokine concentration [6]: 1288.92 pg/mL
IFN-γ cytokine concentration [7]: 2117.29 pg/mL
IL-1 cytokine concentration [7]: 175.59 pg/mL
IL-2 cytokine concentration [7]: 152.69 pg/mL
IL-4 cytokine concentration [7]: 72.07 pg/mL
IL-5 cytokine concentration [7]: 238.08 pg/mL
IL-6 cytokine concentration [7]: 201.87 pg/mL
IL-10 cytokine concentration [7]: 1133.29 pg/mL
IL-13 cytokine concentration [7]: 0 pg/mL
IL-17 cytokine concentration [7]: 70.93 pg/mL
IL-21 cytokine concentration [7]: 0 pg/mL
IL-22 cytokine concentration [7]: 90.3 pg/mL
IL-27 cytokine concentration [7]: 126.71 pg/mL
TNF-α cytokine concentration [7]: 49.63 pg/mL
